Reference: US9145411B2, “Substituted amino-pyrimidine derivatives” (Asana Biosciences, LLC, priority 2012, dated 2015)

Experiments:
PI3Kα (wild-type) = target: T1, PI3Kα (wild-type) (Homo sapiens, UniProt P42336); assay: PI3 Kinase TR-FRET assay, PI3Kα (wild-type); type: biochemical; details: wild-type P110/P85α, 10 μM ATP
T1 construct: made in house; host or cells: SF9 insect cells
Procedure, shortened: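 Sf9-expressed, Ni-purified p110/p85α (5 ng) with PIP2 was preincubated with compound for 60 min at room temperature in buffer with 40 mM MgCl2 and 5 mM DTT. The reaction ran 30 min at room temperature with 10 μM PIP2 and 10 μM ATP. The TR-FRET 665/615 nm ratio was used to derive IC50 from dose-response curves.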

mTOR kinase = target: T2, mTOR kinase (Homo sapiens, UniProt P42345); assay: mTOR kinase TR-FRET assay; type: biochemical; details: 20 μM ATP
T2 construct: purchased Millipore, USA
Procedure, shortened: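 Test compounds were pre-incubated 60 min with mTOR (5 ng), then ULight-p70 S6K (Thr389) peptide (50 nM) and ATP (20 μM) were added in HEPES 50 mM pH 7.5, EGTA, MnCl2 3 mM. After 60 min at room temperature, EDTA stop and Eu-anti-phospho antibody TR-FRET (665/615 nm) gave IC50 from sigmoidal variable-slope fits.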

pS6RP (S235/236) = assay: In-cell Western assay, pS6RP (S235/236), PC3 cells; type: cell-based; details: Homo sapiens, PC-3, 2 hours incubation
Procedure: (§1) Cells from human prostate cancer cell line PC3 (American Type Culture Collection (ATCC), Manassas, Va. 20108 USA) were seeded at an optimal density of 22,000 cell/well in 96-well plates containing Ham's F12K medium (90 μL) and incubated overnight. The compound dilutions were carried out in 100% DMSO followed by a dilution in the medium. Test compounds were added in serial dilutions to the wells and incubated for 2 hours. The cells were washed and fixed with 4% paraformaldehyde. After incubation at room temperature for 1 hour in the dark, blocking was done for 2 hours at room temperature. Primary antibodies for pAkt(S473) ([…] phosphorylated at serine 473), pAkt(T308) (Akt phosphorylated at threonine 308) and for pS6RP (S235/236) (phosphorylated at serine 235/236) (commercially available from Cell Signaling Technology®, whose protocol was followed for the in-cell western assay, were diluted to the required concentration and added to the corresponding wells followed by overnight incubation at 4° C. Eu-labeled rabbit (PE) (Perkin-Elmer USA catalog #AD0106) secondary antibody was added and incubated for 2 hours at room temperature. Delfia® enhancement solution (cat #1244-105, Perkin Elmer USA) was subsequently added to the plate before taking the reading at 615 nm with excitation wavelength of 340 nm, after which 0.5 μg/mL of Hoechst® 33258 dye (Catalog #86140-5, Sigma) was added to the plate and fluorescence emission was read at 460 nm with 355 nm excitation, to evaluate the correction factor. IC50 values were calculated using a sigmoidal dose-response curve fit in GraphPad Prism® v5 software.

PC3 cells = assay: XTT assay for cell viability, PC3 cells; type: cell-based; details: Homo sapiens, PC-3; PC3 cell proliferation, 96 hours
Procedure, shortened: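 Log-phase PC3 cells (1000/well) were seeded for 24 h, then exposed to serially diluted compounds (DMSO dilutions) for 96 h. Viability was measured by XTT dye conversion at 37 °C, with absorbance read at 465 nm. EC50 was obtained from a sigmoidal dose-response fit.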

pAkt(S473) = assay: In-cell Western assay, pAkt(S473), PC3 cells; type: cell-based; details: Homo sapiens, PC-3, 2 hours incubation
Procedure: as §1

pAkt(T308) = assay: In-cell Western assay, pAkt(T308), PC3 cells; type: cell-based; details: Homo sapiens, PC-3, 2 hours incubation
Procedure: as §1

T2 sequence (P42345 1362-2549 limits assumed): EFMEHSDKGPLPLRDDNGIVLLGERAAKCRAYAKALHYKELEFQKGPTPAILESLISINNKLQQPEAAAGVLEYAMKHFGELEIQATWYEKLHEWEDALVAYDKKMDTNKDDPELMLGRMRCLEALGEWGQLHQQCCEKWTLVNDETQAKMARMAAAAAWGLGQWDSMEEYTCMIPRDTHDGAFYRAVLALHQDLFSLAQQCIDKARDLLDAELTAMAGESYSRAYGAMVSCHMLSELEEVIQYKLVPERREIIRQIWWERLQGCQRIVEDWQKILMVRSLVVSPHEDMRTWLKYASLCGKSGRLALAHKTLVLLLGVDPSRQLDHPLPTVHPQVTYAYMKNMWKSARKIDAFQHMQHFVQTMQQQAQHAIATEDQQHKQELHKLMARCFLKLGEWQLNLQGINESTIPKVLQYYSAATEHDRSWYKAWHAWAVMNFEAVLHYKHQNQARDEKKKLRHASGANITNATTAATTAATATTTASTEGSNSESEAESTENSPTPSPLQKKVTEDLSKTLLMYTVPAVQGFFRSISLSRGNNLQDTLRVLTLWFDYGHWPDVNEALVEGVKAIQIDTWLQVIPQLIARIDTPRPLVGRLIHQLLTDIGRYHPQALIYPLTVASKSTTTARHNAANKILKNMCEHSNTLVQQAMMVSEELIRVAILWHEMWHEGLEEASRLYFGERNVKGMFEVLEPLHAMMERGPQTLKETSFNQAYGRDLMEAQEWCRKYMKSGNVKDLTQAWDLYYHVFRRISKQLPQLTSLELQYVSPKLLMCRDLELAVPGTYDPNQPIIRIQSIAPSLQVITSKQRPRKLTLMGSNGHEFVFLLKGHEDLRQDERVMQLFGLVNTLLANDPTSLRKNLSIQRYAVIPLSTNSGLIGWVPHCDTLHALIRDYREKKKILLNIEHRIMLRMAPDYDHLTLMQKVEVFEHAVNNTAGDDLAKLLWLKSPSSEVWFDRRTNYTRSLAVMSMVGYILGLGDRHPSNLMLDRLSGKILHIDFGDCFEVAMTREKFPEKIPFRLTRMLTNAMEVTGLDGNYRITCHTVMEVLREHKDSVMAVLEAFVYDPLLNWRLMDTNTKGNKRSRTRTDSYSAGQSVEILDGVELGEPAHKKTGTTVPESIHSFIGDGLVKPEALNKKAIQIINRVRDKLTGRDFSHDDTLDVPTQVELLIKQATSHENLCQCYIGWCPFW
T1 sequence (P42336 whole entry, species assumed): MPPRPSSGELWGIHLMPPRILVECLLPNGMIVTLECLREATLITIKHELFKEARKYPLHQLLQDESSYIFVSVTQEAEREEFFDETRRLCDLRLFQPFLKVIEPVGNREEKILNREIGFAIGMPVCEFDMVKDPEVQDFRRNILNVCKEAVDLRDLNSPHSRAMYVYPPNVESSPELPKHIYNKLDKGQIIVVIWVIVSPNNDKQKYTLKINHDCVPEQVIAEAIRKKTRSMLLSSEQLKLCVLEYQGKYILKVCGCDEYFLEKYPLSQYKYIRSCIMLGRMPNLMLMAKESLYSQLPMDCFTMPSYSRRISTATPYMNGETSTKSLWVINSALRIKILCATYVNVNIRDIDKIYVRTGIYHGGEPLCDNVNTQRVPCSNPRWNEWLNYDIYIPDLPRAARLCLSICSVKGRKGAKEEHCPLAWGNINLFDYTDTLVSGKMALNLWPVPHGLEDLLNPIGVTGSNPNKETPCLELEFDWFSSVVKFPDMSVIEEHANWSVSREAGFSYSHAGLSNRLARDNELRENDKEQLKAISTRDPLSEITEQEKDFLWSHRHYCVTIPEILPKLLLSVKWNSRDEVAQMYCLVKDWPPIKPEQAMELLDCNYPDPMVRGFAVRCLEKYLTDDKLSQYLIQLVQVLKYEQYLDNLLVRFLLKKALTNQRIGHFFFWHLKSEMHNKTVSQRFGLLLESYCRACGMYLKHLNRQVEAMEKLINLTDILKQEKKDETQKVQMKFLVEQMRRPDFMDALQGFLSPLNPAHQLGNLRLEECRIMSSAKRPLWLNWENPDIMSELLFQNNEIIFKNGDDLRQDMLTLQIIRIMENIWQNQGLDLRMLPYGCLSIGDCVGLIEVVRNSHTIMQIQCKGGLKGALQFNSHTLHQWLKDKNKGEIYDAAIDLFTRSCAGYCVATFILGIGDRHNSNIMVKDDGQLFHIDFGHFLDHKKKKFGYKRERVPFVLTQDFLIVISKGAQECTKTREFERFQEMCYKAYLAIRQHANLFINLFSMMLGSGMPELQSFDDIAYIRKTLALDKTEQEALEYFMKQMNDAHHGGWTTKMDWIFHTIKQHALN
T1 sequence (P27986 whole entry partner, species assumed): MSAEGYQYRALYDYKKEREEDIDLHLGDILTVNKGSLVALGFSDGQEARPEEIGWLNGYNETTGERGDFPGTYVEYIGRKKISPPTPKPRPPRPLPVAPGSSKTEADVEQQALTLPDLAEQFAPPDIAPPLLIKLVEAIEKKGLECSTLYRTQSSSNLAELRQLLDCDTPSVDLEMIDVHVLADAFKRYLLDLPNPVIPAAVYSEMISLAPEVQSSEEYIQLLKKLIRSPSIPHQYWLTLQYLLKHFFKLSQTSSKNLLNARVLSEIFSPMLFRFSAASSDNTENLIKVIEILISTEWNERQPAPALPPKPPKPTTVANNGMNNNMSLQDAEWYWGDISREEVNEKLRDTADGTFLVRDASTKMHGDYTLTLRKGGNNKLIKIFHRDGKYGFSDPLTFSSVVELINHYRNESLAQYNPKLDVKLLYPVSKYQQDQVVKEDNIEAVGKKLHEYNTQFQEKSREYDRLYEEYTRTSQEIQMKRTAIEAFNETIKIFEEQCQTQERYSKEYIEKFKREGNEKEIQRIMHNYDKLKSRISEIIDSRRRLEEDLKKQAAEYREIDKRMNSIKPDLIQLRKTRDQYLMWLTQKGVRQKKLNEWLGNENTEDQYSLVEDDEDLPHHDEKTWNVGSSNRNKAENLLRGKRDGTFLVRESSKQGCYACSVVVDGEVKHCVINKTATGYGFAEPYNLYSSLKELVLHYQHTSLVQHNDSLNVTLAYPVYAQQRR

Compound | IC50 (PI3Kα (wild-type)) | IC50 (mTOR kinase) | IC50 (pS6RP (S235/236)) | IC50 (PC3 cells) | IC50 (pAkt(S473)) | IC50 (pAkt(T308))
CN(C)CC(=O)Nc1cccc(-c2cnc3c(N4CCOCC4)nc(-c4cnc(N)nc4)nc3c2)c1 [Example 46, N-(3-(2-(2-amino-pyrimidin-5-yl)-4-morpholinopyrido[3,2-d]pyrimidin-7-yl)phenyl)-2-(dimethylamino)-acetamide] | < 50 nM | < 50 nM | 501 to 5000 nM | 100 to 500 nM | – | –
CS(=O)(=O)c1cccc(-c2cnc3c(N4CCOCC4)nc(-c4cnc(N)nc4)nc3c2)c1 [Example 20, 5-(7-(3-(methyl-sulfonyl)phenyl)-4-morpholinopyrido[3,2-d]-pyrimidin-2-yl)pyrimidin-2-amine] | < 50 nM | < 50 nM | 100 to 500 nM | 100 to 500 nM | – | –
CC(C)(C)C(=O)Nc1cccc(-c2cnc3c(N4CCOCC4)nc(-c4cnc(N)nc4)nc3c2)c1 [Example 118, N-(3-(2-(2-amino-pyrimidin-5-yl)-4-morpholinopyrido[3,2-d]pyrimidin-7-yl)-phenyl)pivalamide] | < 50 nM | < 50 nM | 501 to 5000 nM | 501 to 5000 nM | 501 to 5000 nM | –
Nc1ncc(-c2nc(N3CCOCC3)c3ncc(-c4cc(NC(=O)C5CC5)ccc4F)cc3n2)cn1 [Example 95, N-(3-(2-(2-amino-pyrimidin-5-yl)-4-morpholinopyrido[3,2-d]-pyrimidin-7-yl)-4-fluorophenyl)cyclopropane-carboxamide] | < 50 nM | 50 to 200 nM | 100 to 500 nM | 100 to 500 nM | < 100 nM | –
Nc1ncc(-c2nc(N3CCOCC3)c3ncc(-c4cccc(NC(=O)CO)c4)cc3n2)cn1 [Example 50, N-(3-(2-(2-amino-pyrimidin-5-yl)-4-morpholinopyrido[3,2-d]pyrimidin-7-yl)phenyl)-2-hydroxyacetamide] | < 50 nM | < 50 nM | – | 100 to 500 nM | – | 501 to 5000 nM
CC(O)C(=O)Nc1cccc(-c2cnc3c(N4CCOCC4)nc(-c4cnc(N)nc4)nc3c2)c1 (stereo not drawn) [Example 45, N-(3-(2-(2-amino-pyrimidin-5-yl)-4-morpholinopyrido[3,2-d]pyrimidin-7-yl)phenyl)-2-hydroxypropanamide] | < 50 nM | < 50 nM | 100 to 500 nM | < 100 nM | – | 501 to 5000 nM
Nc1ncc(-c2nc(N3CCOCC3)c3ncc(-c4cccc(NC(=O)C5CCC(O)CC5)c4)cc3n2)cn1 (stereo not drawn) [Example 70, N-(3-(2-(2-amino-pyrimidin-5-yl)-4-morpholinopyrido[3,2-d]pyrimidin-7-yl)phenyl)-4-hydroxycyclohexane-carboxamide] | < 50 nM | < 50 nM | – | 100 to 500 nM | – | 100 to 500 nM
CCC(=O)Nc1cccc(-c2cnc3c(N4CCOCC4)nc(-c4cnc(N)nc4)nc3c2)c1 [Example 104, N-(3-(2-(2-amino-pyrimidin-5-yl)-4-morpholinopyrido[3,2-d]-pyrimidin-7-yl)-phenyl)propionamide] | < 50 nM | < 50 nM | – | 100 to 500 nM | – | < 100 nM
Nc1ncc(-c2nc(N3CCOCC3)c3ncc(-c4ccc(NS(=O)(=O)C5CC5)cc4)cc3n2)cn1 [Example 82, N-(4-(2-(2-amino-pyrimidin-5-yl)-4-morpholinopyrido[3,2-d]-pyrimidin-7-yl)phenyl)-cyclopropanesulfonamide] | < 50 nM | < 50 nM | – | 100 to 500 nM | – | < 100 nM
Nc1ncc(-c2nc(N3CCOCC3)c3ncc(-c4cncnc4)cc3n2)cn1 [Example 23, 5-(4-morpholino-7-(pyrimidin-5-yl)-pyrido[3,2-d]pyrimidin-2-yl)pyrimidin-2-amine] | < 50 nM | 50 to 200 nM | 501 to 5000 nM | > 1000 nM | 100 to 500 nM | –
CS(=O)(=O)c1cccc(-c2cc3nc(-c4cnc(N)nc4)nc(N4CCOCC4)c3cc2F)c1 [Example 2, 5-(6-Fluoro-7-(3-(methylsulfonyl)phenyl)-4-morpholinoquinazolin-2-yl)pyrimidin-2-amine] | < 50 nM | 50 to 200 nM | 501 to 5000 nM | 501 to 5000 nM | – | –
Nc1ncc(-c2nc(N3CCOCC3)c3ncc(-c4cccc(NC(=O)c5ccco5)c4)cc3n2)cn1 [Example 67, N-(3-(2-(2-amino-pyrimidin-5-yl)-4-morpholinopyrido[3,2-d]pyrimidin-7-yl)-phenyl)furan-2-carboxamide] | < 50 nM | < 50 nM | – | 100 to 500 nM | – | 100 to 500 nM
CNC(=O)c1cccc(-c2cnc3c(N4CCOCC4)nc(-c4cnc(N)nc4)nc3c2)c1 [Example 103, 3-(2-(2-aminopyrimidin-5-yl)-4-morpholinopyrido[3,2-d]-pyrimidin-7-yl)-N-methylbenzamide] | < 50 nM | 50 to 200 nM | – | < 100 nM | – | < 100 nM
Nc1ncc(-c2nc(N3CCOCC3)c3ncc(-c4cccc(NC(=O)C5CCCC5)c4)cc3n2)cn1 [Example 57, N-(3-(2-(2-amino-pyrimidin-5-yl)-4-morpholinopyrido[3,2-d]pyrimidin-7-yl)-phenyl)cyclopentane-carboxamide] | < 50 nM | < 50 nM | – | 501 to 5000 nM | – | 100 to 500 nM
CC(C)(O)c1cccc(-c2cnc3c(N4CCOCC4)nc(-c4cnc(N)nc4)nc3c2)c1 [Example 109, 2-(3-(2-(2-amino-pyrimidin-5-yl)-4-morpholinopyrido[3,2-d]pyrimidin-7-yl)-phenyl)propan-2-ol] | < 50 nM | 50 to 200 nM | – | 100 to 500 nM | – | 501 to 5000 nM
Nc1ncc(-c2nc(N3CCOCC3)c3ncc(-c4cccc(NS(=O)(=O)C5CC5)c4)cc3n2)cn1 [Example 81, N-(3-(2-(2-amino-pyrimidin-5-yl)-4-morpholinopyrido[3,2-d]pyrimidin-7-yl)-phenyl)cyclopropane-sulfonamide] | < 50 nM | < 50 nM | – | 100 to 500 nM | – | < 100 nM
CC(C)CCC(=O)Nc1cccc(-c2cnc3c(N4CCOCC4)nc(-c4cnc(N)nc4)nc3c2)c1 [Example 66, N-(3-(2-(2-amino-pyrimidin-5-yl)-4-morpholinopyrido[3,2-d]pyrimidin-7-yl)phenyl)-4-methylpentanamide] | < 50 nM | < 50 nM | – | 100 to 500 nM | – | 501 to 5000 nM
CC(=O)Nc1cccc(-c2cnc3c(N4CCOCC4)nc(-c4cnc(N)nc4)nc3c2)c1C [Example 56, N-(3-(2-(2-amino-pyrimidin-5-yl)-4-morpholinopyrido[3,2-d]pyrimidin-7-yl)-2-methylphenyl)acetamide] | < 50 nM | 50 to 200 nM | – | 100 to 500 nM | – | 100 to 500 nM
Nc1ncc(-c2nc(N3CCOCC3)c3ncc(-c4cccc(NC(=O)c5cnccc5C(F)(F)F)c4)cc3n2)cn1 [Example 68, N-(3-(2-(2-amino-pyrimidin-5-yl)-4-morpholinopyrido[3,2-d]pyrimidin-7-yl)phenyl)-4-(trifluoromethyl)-nicotinamide] | < 50 nM | < 50 nM | – | 100 to 500 nM | – | < 100 nM
CN1CCN(CC(=O)Nc2ccc(F)c(-c3cnc4c(N5CCOCC5)nc(-c5cnc(N)nc5)nc4c3)c2)CC1 [Example 85, N-(3-(2-(2-aminopyrimidin-5-yl)-4-morpholinopyrido[3,2-d]pyrimidin-7-yl)-4-fluorophenyl)-2-(4-methylpiperazin-1-yl)-acetamide] | < 50 nM | < 50 nM | – | 100 to 500 nM | – | 100 to 500 nM
